Results: ChEMBL document CHEMBL5465560, “Selectivity Literature for EUbOPEN Chemogenomic Library” (2024)

Key:
[1] = target: T1, MAP kinase-activated protein kinase 5 (Homo sapiens) (UniProt Q8IW41); experiment: Selectivity interaction (Kinase panel (Z-LYTE Assay)) EUB0001632a MAPKAPK5; details: at 10 µM
T1 sequence (whole entry): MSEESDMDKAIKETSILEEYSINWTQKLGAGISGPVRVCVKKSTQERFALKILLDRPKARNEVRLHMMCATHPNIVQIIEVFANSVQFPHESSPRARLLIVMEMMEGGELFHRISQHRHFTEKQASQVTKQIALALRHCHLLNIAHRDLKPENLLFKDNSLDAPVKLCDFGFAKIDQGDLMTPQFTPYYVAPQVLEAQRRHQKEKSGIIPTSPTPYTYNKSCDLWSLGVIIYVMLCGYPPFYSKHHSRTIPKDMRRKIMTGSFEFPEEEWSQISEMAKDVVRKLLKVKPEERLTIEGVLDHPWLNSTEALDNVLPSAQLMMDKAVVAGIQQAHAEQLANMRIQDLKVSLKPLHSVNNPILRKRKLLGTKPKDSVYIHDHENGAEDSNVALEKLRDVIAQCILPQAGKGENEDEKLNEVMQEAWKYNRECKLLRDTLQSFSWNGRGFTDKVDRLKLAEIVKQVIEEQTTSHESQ

[2] = target: Tyrosine-protein kinase Fgr (Homo sapiens) (UniProt P09769); experiment: Selectivity interaction (Kinase panel (Z-LYTE Assay)) EUB0001632a FGR; details: at 10 µM
[3] = target: Dual specificity protein kinase CLK4 (Homo sapiens, UniProt Q9HAZ1); experiment: Selectivity interaction (KinomeScan (DiscoverX)) EUB0000607a CLK4; details: at 10 µM
[4] = target: MAP/microtubule affinity-regulating kinase 3 (Homo sapiens) (UniProt P27448); experiment: Selectivity interaction (KinomeScan (DiscoverX)) EUB0000607a MARK3; details: at 10 µM
[5] = target: T2, Alpha-1B adrenergic receptor (Homo sapiens) (UniProt P35368); experiment: Selectivity interaction (Panel of kinases, GPCRs, ion channels and transporters (enzymatic assay)) EUB0000266bCl ADRA1B
T2 sequence (whole entry): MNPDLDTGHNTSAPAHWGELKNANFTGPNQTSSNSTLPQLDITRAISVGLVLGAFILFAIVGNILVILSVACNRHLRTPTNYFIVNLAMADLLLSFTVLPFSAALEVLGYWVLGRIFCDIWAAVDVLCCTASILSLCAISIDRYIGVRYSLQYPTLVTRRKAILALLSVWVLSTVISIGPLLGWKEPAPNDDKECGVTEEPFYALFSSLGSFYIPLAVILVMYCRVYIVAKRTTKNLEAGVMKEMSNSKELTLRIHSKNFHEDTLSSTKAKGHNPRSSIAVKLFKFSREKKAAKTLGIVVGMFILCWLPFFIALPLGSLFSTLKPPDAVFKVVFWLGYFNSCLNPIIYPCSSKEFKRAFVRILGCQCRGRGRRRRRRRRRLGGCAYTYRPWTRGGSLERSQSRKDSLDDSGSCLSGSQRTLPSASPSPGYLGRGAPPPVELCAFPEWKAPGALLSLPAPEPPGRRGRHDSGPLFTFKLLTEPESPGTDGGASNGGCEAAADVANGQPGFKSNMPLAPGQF

[6] = target: Serine/threonine-protein kinase Nek6 (Homo sapiens) (UniProt Q9HC98); experiment: Selectivity interaction (Upstate Kinase Profiler service (Millipore)) EUB0000056c NEK6; details: at 1 µM
[7] = target: T1, MAP kinase-activated protein kinase 5 (Homo sapiens); details: at 10 µM
[8] = target: T3, Dual specificity mitogen-activated protein kinase kinase 3 (Homo sapiens) (UniProt P46734); experiment: Selectivity interaction (ActivX KiNativ screen (kinase selectivity in THP-1 cell lysates)) EUB0000639a MAP2K3; format: subcellular; details: lysate, at 0.2 µM
T3 sequence (whole entry): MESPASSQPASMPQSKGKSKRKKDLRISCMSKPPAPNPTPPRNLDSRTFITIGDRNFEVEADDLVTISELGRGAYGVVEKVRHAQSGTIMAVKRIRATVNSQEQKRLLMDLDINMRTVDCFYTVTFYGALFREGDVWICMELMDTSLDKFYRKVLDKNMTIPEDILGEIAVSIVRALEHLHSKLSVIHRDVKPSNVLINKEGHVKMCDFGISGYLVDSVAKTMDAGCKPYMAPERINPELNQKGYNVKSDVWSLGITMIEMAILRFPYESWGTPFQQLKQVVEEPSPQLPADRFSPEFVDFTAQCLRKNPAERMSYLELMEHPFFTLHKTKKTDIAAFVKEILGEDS

[9] = target: ALK tyrosine kinase receptor (Homo sapiens, UniProt Q9UM73); experiment: Selectivity interaction (ProQinase) EUB0000171b ALK; details: at 5 µM
[10] = target: Mitogen-activated protein kinase kinase kinase 10 (Homo sapiens) (UniProt Q02779); experiment: Selectivity interaction (KinomeScan (DiscoverX)) EUB0000695a MAP3K10; details: at 100 nM
[11] = target: Platelet-derived growth factor receptor alpha (Homo sapiens, UniProt P16234); experiment: Selectivity interaction (KinomeScan (DiscoverX)) EUB0000595a PDGFRA; details: at 10 µM
[12] = target: Ribosomal protein S6 kinase alpha-1 (Homo sapiens, UniProt Q15418); experiment: Selectivity interaction (KinomeScan (DiscoverX)) EUB0001049a RPS6KA1; details: at 1 µM
[13] = target: G protein-coupled receptor kinase 4 (Homo sapiens) (UniProt P32298); experiment: Selectivity interaction (KinomeScan (DiscoverX)) EUB0001049a GRK4; details: at 1 µM
[14] = target: Serine/threonine-protein kinase Chk2 (Homo sapiens) (UniProt O96017); experiment: Selectivity interaction (Ambit KINOMEscan and KiNATiv profiling in Jurkat cells) EUB0000090b CHEK2; format: cell-based; details: at 1 µM
[15] = target: Casein kinase I isoform gamma-2 (Homo sapiens) (UniProt P78368); experiment: Selectivity interaction (KinomeScan (DiscoverX)) EUB0000045b CSNK1G2
[16] = target: Serine/threonine-protein kinase SIK1 (Homo sapiens) (UniProt P57059); experiment: Selectivity interaction (KinomeScan (DiscoverX)) EUB0001079a SIK1; details: at 1 µM
[17] = target: Histone-lysine N-methyltransferase, H3 lysine-79 specific (Homo sapiens, UniProt Q8TEK3); details: at 1 µM
[18] = target: Dual specificity mitogen-activated protein kinase kinase 1 (Homo sapiens, UniProt Q02750); experiment: Selectivity interaction (Kinase panel (KiNativ target engagement assay in Jurkat cells)) EUB0001635a MAP2K1; format: cell-based; details: Selectivity number of off-targets 0.0, Selectivity number of targets 233.0, Source Knowledge https://www.sciencedirect.com/science/article/pii/S2451945619300674?via%3Dihub, at 1 µM
[19] = test system: Receptor-type tyrosine-protein kinase FLT3 (Homo sapiens), P36888 [UNDEFINED MUTATION]; experiment: Selectivity interaction (KinomeScan (DiscoverX)) EUB0000229b FLT3; details: at 1 µM
[20] = target: Phosphatidylinositol 4,5-bisphosphate 3-kinase catalytic subunit beta isoform (Homo sapiens) (UniProt P42338); experiment: Selectivity interaction (KinomeScan (DiscoverX)) EUB0001619a PIK3CB; details: at 1 µM

Chain of Casein kinase I isoform gamma-2 (Homo sapiens) (P78368 whole entry, looked up, canonical isoform): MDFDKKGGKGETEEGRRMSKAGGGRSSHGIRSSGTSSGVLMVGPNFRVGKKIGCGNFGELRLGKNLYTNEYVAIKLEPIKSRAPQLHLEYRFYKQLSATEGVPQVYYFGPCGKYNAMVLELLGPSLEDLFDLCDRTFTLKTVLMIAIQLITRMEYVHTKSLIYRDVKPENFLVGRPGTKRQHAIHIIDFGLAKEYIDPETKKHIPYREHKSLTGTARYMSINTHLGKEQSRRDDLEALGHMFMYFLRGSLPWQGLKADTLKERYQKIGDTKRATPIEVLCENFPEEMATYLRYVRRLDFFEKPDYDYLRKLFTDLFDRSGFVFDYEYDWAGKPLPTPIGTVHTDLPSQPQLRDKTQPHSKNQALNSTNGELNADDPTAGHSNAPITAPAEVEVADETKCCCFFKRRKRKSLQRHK
Chain of ALK tyrosine kinase receptor (Q9UM73 19-1620 limits assumed): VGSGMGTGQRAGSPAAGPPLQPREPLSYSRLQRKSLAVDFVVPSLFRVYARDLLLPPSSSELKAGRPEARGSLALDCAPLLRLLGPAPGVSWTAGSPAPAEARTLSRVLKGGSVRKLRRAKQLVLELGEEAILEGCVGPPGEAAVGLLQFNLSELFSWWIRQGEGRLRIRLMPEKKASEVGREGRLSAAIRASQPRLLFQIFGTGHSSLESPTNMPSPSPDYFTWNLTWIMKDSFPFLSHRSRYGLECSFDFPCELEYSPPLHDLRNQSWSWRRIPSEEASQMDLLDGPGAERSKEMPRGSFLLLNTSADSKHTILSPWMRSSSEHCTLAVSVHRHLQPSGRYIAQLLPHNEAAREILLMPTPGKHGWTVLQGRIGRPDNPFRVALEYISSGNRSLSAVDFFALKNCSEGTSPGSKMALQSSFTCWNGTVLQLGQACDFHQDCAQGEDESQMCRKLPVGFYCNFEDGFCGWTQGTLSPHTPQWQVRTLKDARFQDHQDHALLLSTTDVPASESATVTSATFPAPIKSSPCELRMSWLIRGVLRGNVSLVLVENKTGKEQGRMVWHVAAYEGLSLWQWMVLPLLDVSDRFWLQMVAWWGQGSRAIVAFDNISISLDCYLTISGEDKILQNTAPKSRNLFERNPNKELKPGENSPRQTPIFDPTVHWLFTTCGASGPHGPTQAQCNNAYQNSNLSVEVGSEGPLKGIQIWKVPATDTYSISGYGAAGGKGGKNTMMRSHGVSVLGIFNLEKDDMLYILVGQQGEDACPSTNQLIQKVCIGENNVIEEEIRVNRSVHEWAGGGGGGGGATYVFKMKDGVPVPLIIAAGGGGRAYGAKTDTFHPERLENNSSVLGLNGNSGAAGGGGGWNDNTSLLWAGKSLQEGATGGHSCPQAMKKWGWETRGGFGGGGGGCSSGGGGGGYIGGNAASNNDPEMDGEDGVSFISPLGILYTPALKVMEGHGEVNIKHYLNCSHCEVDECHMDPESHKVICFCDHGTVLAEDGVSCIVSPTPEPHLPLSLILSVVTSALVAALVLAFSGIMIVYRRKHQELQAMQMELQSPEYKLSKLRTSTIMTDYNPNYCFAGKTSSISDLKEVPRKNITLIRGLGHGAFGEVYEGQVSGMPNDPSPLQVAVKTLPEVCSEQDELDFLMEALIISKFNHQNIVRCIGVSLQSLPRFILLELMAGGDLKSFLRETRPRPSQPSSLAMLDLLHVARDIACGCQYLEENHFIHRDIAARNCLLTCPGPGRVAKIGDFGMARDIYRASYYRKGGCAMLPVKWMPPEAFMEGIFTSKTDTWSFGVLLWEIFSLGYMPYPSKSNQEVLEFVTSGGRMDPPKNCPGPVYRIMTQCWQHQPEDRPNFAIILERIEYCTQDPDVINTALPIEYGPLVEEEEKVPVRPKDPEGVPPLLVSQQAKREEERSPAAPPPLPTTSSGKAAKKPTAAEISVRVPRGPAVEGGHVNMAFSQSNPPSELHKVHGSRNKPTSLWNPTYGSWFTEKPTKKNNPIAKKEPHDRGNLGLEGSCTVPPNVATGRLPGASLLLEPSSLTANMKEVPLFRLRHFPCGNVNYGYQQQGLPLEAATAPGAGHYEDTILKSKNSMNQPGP
Chain of Dual specificity protein kinase CLK4 (Q9HAZ1 whole entry, looked up): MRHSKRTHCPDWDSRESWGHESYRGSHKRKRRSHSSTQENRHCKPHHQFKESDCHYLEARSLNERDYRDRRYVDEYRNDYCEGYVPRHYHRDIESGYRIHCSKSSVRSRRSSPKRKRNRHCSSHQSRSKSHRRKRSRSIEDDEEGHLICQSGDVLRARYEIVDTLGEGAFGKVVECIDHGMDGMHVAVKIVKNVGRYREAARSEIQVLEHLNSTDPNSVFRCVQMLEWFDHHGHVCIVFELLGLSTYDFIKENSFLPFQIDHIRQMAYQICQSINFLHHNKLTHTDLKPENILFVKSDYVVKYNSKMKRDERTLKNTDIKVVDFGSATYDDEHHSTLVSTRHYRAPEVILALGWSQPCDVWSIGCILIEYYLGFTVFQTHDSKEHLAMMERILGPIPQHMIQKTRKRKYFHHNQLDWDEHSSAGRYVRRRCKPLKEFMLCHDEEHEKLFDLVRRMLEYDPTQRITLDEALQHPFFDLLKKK
Chain of Serine/threonine-protein kinase Chk2 (Homo sapiens) (O96017 whole entry, canonical isoform): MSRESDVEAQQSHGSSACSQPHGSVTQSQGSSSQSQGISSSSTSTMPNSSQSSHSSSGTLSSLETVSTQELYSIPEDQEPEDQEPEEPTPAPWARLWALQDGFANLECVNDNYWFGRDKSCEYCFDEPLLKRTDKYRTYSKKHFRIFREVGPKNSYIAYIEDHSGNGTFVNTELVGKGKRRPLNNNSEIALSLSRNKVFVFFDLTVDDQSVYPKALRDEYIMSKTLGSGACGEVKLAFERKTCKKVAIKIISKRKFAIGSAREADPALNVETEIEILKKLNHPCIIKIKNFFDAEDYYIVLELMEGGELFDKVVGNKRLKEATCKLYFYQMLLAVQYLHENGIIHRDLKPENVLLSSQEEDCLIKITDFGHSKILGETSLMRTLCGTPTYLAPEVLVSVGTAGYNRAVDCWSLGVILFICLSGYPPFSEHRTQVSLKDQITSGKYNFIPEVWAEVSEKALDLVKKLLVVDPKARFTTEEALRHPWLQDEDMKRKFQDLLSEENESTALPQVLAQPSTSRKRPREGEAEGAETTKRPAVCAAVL
Chain of G protein-coupled receptor kinase 4 (Homo sapiens) (P32298 whole entry, looked up): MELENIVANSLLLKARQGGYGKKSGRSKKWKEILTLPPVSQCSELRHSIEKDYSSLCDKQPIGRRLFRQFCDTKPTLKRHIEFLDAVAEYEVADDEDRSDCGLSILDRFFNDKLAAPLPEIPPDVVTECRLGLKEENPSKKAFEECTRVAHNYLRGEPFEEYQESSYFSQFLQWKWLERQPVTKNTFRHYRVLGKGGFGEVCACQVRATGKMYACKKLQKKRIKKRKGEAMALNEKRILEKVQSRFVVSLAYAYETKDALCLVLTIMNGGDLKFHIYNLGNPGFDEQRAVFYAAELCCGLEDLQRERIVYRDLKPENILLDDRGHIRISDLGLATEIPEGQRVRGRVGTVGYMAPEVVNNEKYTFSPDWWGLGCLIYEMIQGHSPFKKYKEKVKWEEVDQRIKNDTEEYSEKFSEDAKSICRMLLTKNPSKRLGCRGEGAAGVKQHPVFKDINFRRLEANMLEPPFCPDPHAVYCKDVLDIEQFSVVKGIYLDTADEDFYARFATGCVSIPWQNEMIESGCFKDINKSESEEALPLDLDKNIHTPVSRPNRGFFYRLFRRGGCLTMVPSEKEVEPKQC
Chain of Platelet-derived growth factor receptor alpha (P16234 whole entry): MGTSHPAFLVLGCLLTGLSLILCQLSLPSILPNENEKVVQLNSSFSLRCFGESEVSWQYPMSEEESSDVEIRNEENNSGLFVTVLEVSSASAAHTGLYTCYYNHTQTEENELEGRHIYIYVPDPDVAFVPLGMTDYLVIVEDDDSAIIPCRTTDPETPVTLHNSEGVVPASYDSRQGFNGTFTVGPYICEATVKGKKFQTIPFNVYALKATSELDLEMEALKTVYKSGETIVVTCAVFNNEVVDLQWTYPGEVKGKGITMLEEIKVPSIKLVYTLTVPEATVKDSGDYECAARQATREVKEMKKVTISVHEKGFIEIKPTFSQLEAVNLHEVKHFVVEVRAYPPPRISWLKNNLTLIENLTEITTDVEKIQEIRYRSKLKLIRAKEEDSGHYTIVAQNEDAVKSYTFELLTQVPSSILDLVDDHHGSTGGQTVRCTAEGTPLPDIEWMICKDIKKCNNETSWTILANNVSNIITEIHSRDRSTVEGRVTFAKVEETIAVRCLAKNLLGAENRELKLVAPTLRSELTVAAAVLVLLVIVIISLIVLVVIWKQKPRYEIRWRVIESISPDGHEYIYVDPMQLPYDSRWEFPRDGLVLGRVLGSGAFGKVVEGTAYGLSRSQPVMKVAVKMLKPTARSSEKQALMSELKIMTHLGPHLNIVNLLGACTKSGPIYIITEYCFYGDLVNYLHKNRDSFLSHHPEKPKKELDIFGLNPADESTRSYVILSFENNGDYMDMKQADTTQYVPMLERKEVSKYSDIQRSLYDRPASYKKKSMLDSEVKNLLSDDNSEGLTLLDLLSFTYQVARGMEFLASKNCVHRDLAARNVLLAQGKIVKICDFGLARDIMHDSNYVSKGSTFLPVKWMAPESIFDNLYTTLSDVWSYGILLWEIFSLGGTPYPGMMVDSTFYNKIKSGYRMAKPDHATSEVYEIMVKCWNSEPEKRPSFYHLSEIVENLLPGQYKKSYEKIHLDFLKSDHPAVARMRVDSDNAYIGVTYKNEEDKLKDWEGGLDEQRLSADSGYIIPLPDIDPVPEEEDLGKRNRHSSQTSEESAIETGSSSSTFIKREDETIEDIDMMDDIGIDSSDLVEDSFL
Chain of Serine/threonine-protein kinase Nek6 (Homo sapiens) (Q9HC98 whole entry): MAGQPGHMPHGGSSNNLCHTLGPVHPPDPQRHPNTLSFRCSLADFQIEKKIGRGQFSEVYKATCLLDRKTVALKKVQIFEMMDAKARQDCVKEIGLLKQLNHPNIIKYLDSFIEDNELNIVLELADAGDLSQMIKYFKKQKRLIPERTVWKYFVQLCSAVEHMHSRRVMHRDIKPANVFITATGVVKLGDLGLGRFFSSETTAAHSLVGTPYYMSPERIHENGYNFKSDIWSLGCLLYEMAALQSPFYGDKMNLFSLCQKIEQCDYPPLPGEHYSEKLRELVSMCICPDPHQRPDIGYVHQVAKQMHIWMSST

With Cn1cc(-n2cnc3c(NCc4nc5cc(Cl)c(Cl)cc5[nH]4)nc(N4CCOCC4)nc32)cn1 the % of control [1] was 7.02% and the % of control [2] was 1.86%.

CNC(=O)Nc1ccc(-c2nc(N3CC4CCC(C3)O4)c3cnn(C4CCC5(CC4)OCCO5)c3n2)cc1 showed a % of control [3] of 88% and a % of control [4] of 92%.

For CCn1c(-c2nc3cc(C(=O)N4CCCC(N)C4)ccc3n2C)cc2ccccc21 (stereo unspecified), the pXC50 [5] was 5.4 M.

With Cc1ccc(-c2ccc3c(ccc4sc5c(c43)NC[C@@H](C)NC5=O)n2)cn1 the % of inhibition [6] was -6%.

Compound CCN(CC)CCCCNc1ncc2cc(-c3cc(OC)cc(OC)c3)c(NC(=O)NC(C)(C)C)nc2n1 has a % of control [7] of 100%.

With CC[C@@H]1[C@H](F)C(=O)N[C@@H]1COc1nccc2cc(C(N)=O)c(OC)cc12 [ZIMLOVISERTIB] the % of inhibition [8] was -70.7%.

C=CC(=O)Nc1cccc(C(=O)Nc2ccc(Nc3cc(-c4[nH]c(SC)nc4C)ccn3)cc2)c1 was tested, and the % of control [9] was 96%.

For Cc1cc(F)c(C(=O)Nc2cccc(-c3nncn3C(C)C)n2)cc1-n1cnc(C2CC2)c1, the % of control [10] was 100%.

For COCC(=O)NC/C=C/c1ccc2ncnc(Nc3ccc(Oc4ccc(C)nc4)c(C)c3)c2c1 [CP-724714], the % of control [11] was 56%.

In the case of COc1cc(Nc2nc(C)cc(-c3cnn4nc(OC)ccc34)n2)cc(C(F)(F)F)c1, the % of control [12] is reported as 88% and the % of control [13] is reported as 85%.

For CN(C)C/C=C/C(=O)Nc1ccc(C(=O)N2CCCC(Nc3ncc(Cl)c(-c4c[nH]c5ccccc45)n3)C2)cc1 (stereo unspecified), the % of control [14] was 81%.

C=CC(=O)Nc1cc(-n2c(=O)ccc3cnc4ccc(-c5ccc(NS(C)(=O)=O)cc5)cc4c32)ccc1C was tested, and the % of control ([15]; at 1 µM) was 100% and the % of control ([15]; at 10 µM) was 62%.

Compound Nc1cnc(N2CCc3cc(S(=O)(=O)Nc4c(F)cc(Cl)cc4F)cc(N4CCCC4=O)c32)nc1 [TP-020n] has a % of control [16] of 100%.

For CNCCN1CCC(c2cc(CN(C)C(=O)c3cccc(Oc4ccccc4)c3)ccn2)CC1, the % activity [17] was over 90%.

C=CC(=O)Nc1ccc(C(=O)Nc2[nH]nc3c2CN(C(=O)N[C@H](CN(C)C)c2ccccc2)C3(C)C)cc1 was tested, and the % of engagement [18] was 4.8%.

COc1cc(N(C)c2ccnc3ccc(C(F)(F)F)cc23)cc(OC)c1OC was tested, and the % binding [19] was 100%.

Work on N#Cc1cccc(-c2c[nH]c3ncnc(N4CCOCC4)c23)c1 yielded a % of control [20] of 100%.
